# Assay results as given in patent US4563462A, “Substance AX-2, a process for producing the same and an antitumor composition containing the same” (Kyowa Hakko Kogyo Kabushiki, priority 1982, dated 1986).
# Key:
# [1] = Acute toxicity (LD50) of AX-2, single injection, 14 days observation, Behrens-Korber's method; set-up: species or system Mice (ddy strain); conditions: mouse, in vivo, male ddy mice
# Source text: The acute toxicity and anti-tumour activity of AX-2 are as follows. I. Acute toxicity (LD50) of AX-2:
# Mice (ddy strain; male; weight 20±2 g; each group consisting of 5 mice) were used as test animals. On each occasion, the active substance of this invention was once administered to the animal by injection (ip. or iv.).
# Sarcoma 180 solid tumour = assay: Effect on Sarcoma 180 solid tumour (volume ratio T/C, iv.); format: in vivo, ddy male mouse; conditions: for T/C (tumour volume ratio): 7 days after administration; for Survials (7 days): Sarcoma 180 mice
# Method: (1) Effect on Sarcoma 180 solid tumour:
# (§1) On each occasion, 5×10^6 cells of Sarcoma 180 solid tumour were implanted into the abdominal cavity of a ddy male mouse. 7 days after this, the cells were collected from the ascites.The cells were washed once with a sterilized physiological solution of sodium chloride and suspended in a sterilized physiological solution of sodium chloride at a concentration of 5×10^7 cells/ml, of which 0.1 ml was implanted under the skin at the right artpit of a ddy male mouse having a weight of 20±2 g. 24 hours after this, the active substance was administered into the vein at the tail of each mouse of a group consisting of 5 mice. In order to investigate the anti-tumour activity, 7 days after administration of AX-2, the major axis (a) and minor axis (b) of the tumour were measured, from which the volume of the tumour was calculated as a X b^2 /2. The effect of AX-2 is expressed by T/C which denotes the volume ratio of T [mice administered with AX-2 ] to C (untreated group). Table 1 indicates the effect of AX-2 agsinst Sarcoma 180 solid tumour by injection (iv.).
# A T/C of 0.25 was obtained from the group, to which each 15 mg/kg of AX-2 had been administered. In this table, ED50 denotes a dose capable of reducing the volume of the tumour to 50% of the corresponding volume of the control group. Such volumes were calculated by plotting a relation between the dose and T/C on a logarithmic graph which indiates T/C on the ordinate and the dose on the abscissa, and calculating the dose and anti-tumour activity as a straight line by the method of least squares. The dose corresponding to T/C of 0.5 is defined as ED50.
# Peripherical leucocytes = Peripherical leucocytes count (WBC) in Sarcoma 180 bearing mice; format: in vivo, ddy male mouse; conditions: blood 4 days after tumour implantation
# Method: as §1
# The peripherical leucocytes count (WBC) was measured by using a micro cell counter in the following manner. Sarcoma 180 solid tumour was implanted by injection (ip.). 4 days after this, blood was collected from the eye ground, of which 20 μl was added to 9.98 ml of Cellkit-7 (a reagent commercially available from Toyo Rika K.K., Japan) to dissolve the red cells. In this solution a drop of saponin was dispersed, followed by measuring with a micro cell counter.
# Melanoma B16 tumour = assay: Effects on Melanoma B16 tumour (survival, ip.); format: in vivo, C57 BL/6 male mouse
# Method: (2) Effects on Melanoma B16 tumour:
# Tumour cells were collected from Melanoma B16 tumour cells lined in the abdominal cavity of a C57 BL/6 male mouse and suspended in a sterilized physiological solution of sodium chloride at a concentration of 2.5×10^7 cell/ml, of which 0.2 ml was implanted into the abdominal cavity of each mouse. The anti-tumour activity was indicated by T/C % where T and C respectively indicate the average survival days of treated and untreated groups.
# As apparent from this table, it was noted that by administration of AX-2 in an amount of 6 mg/kg, the T/C value was more than 277% and 1/5 of the mice were alive 60 days after the beginning of the administration. The therapeutic index [a dose showing a maximum therapeutic effect/a dose showing a T/C of 130%] was 193.
# Solubility = format: physicochemical
smiles,measurement,setting,value
COC1=C(C)C(=O)C2=C(C1=O)C(COC(N)=O)C1(OC)NCC3C1N23 (stereo not shown) [AX-2],LD50 at 336 h,[1]; ip.,7.8 mg/kg
same,LD50 at 336 h,[1]; iv.,27 mg/kg
same,T/C (tumour volume ratio),Sarcoma 180 solid tumour; 1.88 mg/kg,0.77
same,Survials (7 days),Sarcoma 180 solid tumour; 1.88 mg/kg,4/4
same,T/C (tumour volume ratio),Sarcoma 180 solid tumour; 3.75 mg/kg,0.64
same,Survials (7 days),Sarcoma 180 solid tumour; 3.75 mg/kg,4/4
same,T/C (tumour volume ratio),Sarcoma 180 solid tumour; 7.5 mg/kg,0.42
same,Survials (7 days),Sarcoma 180 solid tumour; 7.5 mg/kg,4/4
same,T/C (tumour volume ratio),Sarcoma 180 solid tumour; 10 mg/kg,0.34
same,Survials (7 days),Sarcoma 180 solid tumour; 10 mg/kg,4/4
same,T/C (tumour volume ratio),Sarcoma 180 solid tumour; 15 mg/kg,0.25
same,Survials (7 days),Sarcoma 180 solid tumour; 15 mg/kg,4/4
same,T/C (tumour volume ratio),Sarcoma 180 solid tumour; 30 mg/kg,0.05
same,Survials (7 days),Sarcoma 180 solid tumour; 30 mg/kg,3/4
same,effect (dose dependence),Sarcoma 180 solid tumour; 7.5 to 15 mg/kg,the effect increased according to the increased dose
same,ED50,"Sarcoma 180 solid tumour; Mus musculus, Sarcoma-180, 168 h, least squares from dose vs T/C log plot, read-out: ED50 (dose reducing tumour volume to 50% of control, T/C 0.5)",5.7 mg/kg
same,Peripherical leucocytes count (WBC) ± SD/mm^3,Peripherical leucocytes; 1.88 mg/kg,7730 ± 49 /mm^3
same,Peripherical leucocytes count (WBC) ± SD/mm^3,Peripherical leucocytes; 3.75 mg/kg,6730 ± 115 /mm^3
same,Peripherical leucocytes count (WBC) ± SD/mm^3,Peripherical leucocytes; 7.5 mg/kg,4100 ± 55 /mm^3
same,Peripherical leucocytes count (WBC) ± SD/mm^3,Peripherical leucocytes; 10 mg/kg,2800 ± 80 /mm^3
same,Peripherical leucocytes count (WBC) ± SD/mm^3,Peripherical leucocytes; 15 mg/kg,2950 ± 42 /mm^3
same,Peripherical leucocytes count (WBC) ± SD/mm^3,Peripherical leucocytes; 30 mg/kg,2300 ± 60 /mm^3
same,therapeutic index [a dose showing a maximum therapeutic effect/a dose showing a T/C of 130%],Melanoma B16 tumour,193
same,Average survival days (days ± SD),Melanoma B16 tumour; 0.031 mg/kg,18.4 ± 1.5 days
same,Survived after 60 days after implantation,Melanoma B16 tumour; 0.031 mg/kg,0/5
same,T/C (average survival days treated/untreated),Melanoma B16 tumour; 0.031 mg/kg,144%
same,Average survival days (days ± SD),Melanoma B16 tumour; 0.063 mg/kg,13.0 ± 1.7 days
same,Survived after 60 days after implantation,Melanoma B16 tumour; 0.063 mg/kg,0/5
same,T/C (average survival days treated/untreated),Melanoma B16 tumour; 0.063 mg/kg,140%
same,Average survival days (days ± SD),Melanoma B16 tumour; 0.125 mg/kg,19.4 ± 2.0 days
same,Survived after 60 days after implantation,Melanoma B16 tumour; 0.125 mg/kg,0/5
same,T/C (average survival days treated/untreated),Melanoma B16 tumour; 0.125 mg/kg,152%
same,Average survival days (days ± SD),Melanoma B16 tumour; 0.25 mg/kg,17.8 ± 1.1 days
same,Survived after 60 days after implantation,Melanoma B16 tumour; 0.25 mg/kg,0/5
same,T/C (average survival days treated/untreated),Melanoma B16 tumour; 0.25 mg/kg,140%
same,Average survival days (days ± SD),Melanoma B16 tumour; 0.5 mg/kg,21.0 ± 2.8 days
same,Survived after 60 days after implantation,Melanoma B16 tumour; 0.5 mg/kg,0/5
same,T/C (average survival days treated/untreated),Melanoma B16 tumour; 0.5 mg/kg,164%
same,Average survival days (days ± SD),Melanoma B16 tumour; 1.0 mg/kg,24.0 ± 3.5 days
same,Survived after 60 days after implantation,Melanoma B16 tumour; 1.0 mg/kg,0/5
same,T/C (average survival days treated/untreated),Melanoma B16 tumour; 1.0 mg/kg,189%
same,Average survival days (days ± SD),Melanoma B16 tumour; 2.0 mg/kg,27.4 ± 5.4 days
same,Survived after 60 days after implantation,Melanoma B16 tumour; 2.0 mg/kg,0/5
same,T/C (average survival days treated/untreated),Melanoma B16 tumour; 2.0 mg/kg,214%
same,Average survival days (days ± SD),Melanoma B16 tumour; 4.0 mg/kg,33.4 ± 9.2 days
same,Survived after 60 days after implantation,Melanoma B16 tumour; 4.0 mg/kg,0/5
same,T/C (average survival days treated/untreated),Melanoma B16 tumour; 4.0 mg/kg,261%
same,Average survival days (days ± SD),Melanoma B16 tumour; 6.0 mg/kg,35.4 ± 5.3 days
same,Survived after 60 days after implantation,Melanoma B16 tumour; 6.0 mg/kg,1/5
same,Average survival days (days ± SD),Melanoma B16 tumour; 8.0 mg/kg,10.6 ± 4.2 days
same,Survived after 60 days after implantation,Melanoma B16 tumour; 8.0 mg/kg,0/5
same,T/C (average survival days treated/untreated),Melanoma B16 tumour; 8.0 mg/kg,93%
same,Average survival days (days ± SD),Melanoma B16 tumour; 12.0 mg/kg,4.8 ± 1.6 days
same,Survived after 60 days after implantation,Melanoma B16 tumour; 12.0 mg/kg,0/5
same,T/C (average survival days treated/untreated),Melanoma B16 tumour; 12.0 mg/kg,26%
same,Solubility,"Solubility; ethyl acetate, chloroform, acetone, methanol and ethanol",Soluble
same,Solubility,Solubility; petroleum ether and n-hexane,Insoluble
same,Solubility,Solubility; water,Slightly soluble
